# ChEMBL document CHEMBL3988181, “GlaxoSmithKline Published Kinase Inhibitor Set 2 Onchocerca lienalis Screening Data”
# Assay: GSK PKIS2: Screen against O. lienalis microfilariae, single point, at 3.1uM to assess reduction in motility. Compounds were also tested for cytotoxicity against Rhesus Monkey LLCMK2 cells.
# Type: functional, Onchocerca lienalis, LLC-MK2
# Conditions: CELL_LINE LLCMK2; CELL_SUPPLIER ECACC; CONC 3.1 uM; ORGANISM_SUPPLIER Extracted from peri-umbilical skin obtained from naturally infected cattle in the UK; temperature 37 degree C
row,SMILES,MOTILITY REDUCTION/CYTOTOXICITY [%]
1,NS(=O)(=O)c1cccc(Nc2cc(-c3ccc(F)cc3)n[nH]2)c1,33.4
2,CC(C)Nc1cc(-c2ccc3c(N)n[nH]c3c2)nc(N)n1,60
3,CN1CCN(Cc2ccc(NC(=O)Nc3ccc(N(C)c4ccnc(Nc5ccc(CS(C)(=O)=O)cc5)n4)cc3)cc2)CC1,100
4,O=c1[nH]ccc2nc(N[C@@H]3CCNC3)nc(Nc3cc(Cl)cc(Cl)c3)c12,100
5,O=C(NCCNc1ccnc(Nc2ccc(F)cc2)n1)Nc1ccc2c(c1)OCO2,0
6,Nc1nc(N)c2[nH]c(-c3ccccc3)nc2n1,20
7,CC(=O)c1c(-c2ccncc2)[nH]c(-c2ccncc2)c1C,33.4
8,Nc1ncnc2c1ncn2-c1ccc(Cl)cc1,60
9,NC(=O)c1cccc(Nc2nccc(Nc3ccc(Oc4c(Cl)cccc4Cl)c(Cl)c3)n2)c1,0
10,O=C(NCc1cccs1)c1cc(C(=O)c2c(Cl)cccc2Cl)c[nH]1,0
11,C[C@@H](Oc1cc(-n2cnc3cc(-c4ccncc4)ccc32)sc1C(N)=O)c1ccccc1Cl,0
12,Nc1nccc2scc(-c3ccc4c(c3)CCN4C(=O)Cc3ccccc3)c12,0
13,COc1ccc(Nc2nccc(N3CCC(NC(=O)Nc4cccc(OC)c4)C3)n2)cc1 (configuration not stated),0
14,Nc1nc(Nc2ccccc2)cc(-c2ccc3c(N)n[nH]c3c2)n1,0
15,Cc1ccc(Nc2ccnc(Nc3ccc(C)c(F)c3)n2)cc1O,33.4
16,C[C@@H]1CCCCN1c1cc(-c2ccc3c(N)n[nH]c3c2)nc(N)n1,13.4
17,c1ccc(-c2n[nH]cc2Nc2ccnc3ccccc23)nc1,100
18,Clc1ccc(-c2cc(-c3c[nH]nc3-c3ccccn3)ccn2)cc1,0
19,Cn1ccc(-c2cccc(Nc3ccnc4cc(-c5nccs5)ccc34)c2)n1,0
20,O=C(Nc1n[nH]c2nc(-c3ccco3)c(Br)cc12)C1CCN(Cc2ccccc2)C1 (configuration not stated),33.4
21,Cc1ccc(NC(=O)Nc2ccccc2F)cc1-c1ccc(C(=O)Nc2ccncc2)cc1,53.4
22,c1ccc(Cn2cnc3cc(Nc4ncnc5ccccc45)ccc32)cc1,16.7
23,Cc1ccccc1-c1cc(-c2c[nH]nc2-c2ccccn2)ccn1,0

row,SMILES,MOTILITY REDUCTION/CYTOTOXICITY [%]
1,CCCCc1nn2ncccc2c1-c1ccnc(Nc2ccc(N3CCN(C)CC3)cc2)n1,13.4
2,COc1ccc(Nc2nccc(N3CCC(NC(=O)c4cccc(NC(C)=O)c4)C3)n2)cc1 (configuration not stated),0
3,COc1cccc(-c2ccc3c(NC(=O)C4CC4)n[nH]c3n2)c1,20
4,O=C(NCCNc1ccnc(NCc2ccc(F)cc2)n1)c1cc2ccccc2s1,0
5,COc1cc2ncn(-c3cc(OCCCc4ccccc4)c(C(N)=O)s3)c2cc1OC,33.4
6,COc1cc(Nc2nccc(N3CCC(NC(=O)C4COc5ccccc5O4)C3)n2)cc(OC)c1OC (configuration not stated),0
7,Nc1ncc(-c2cn[nH]c2)c2scc(-c3ccc4c(c3)CCN4C(=O)Cc3ccccc3)c12,0
8,COc1cc(Nc2nccc(N3CCC(NC(=O)Nc4cc(C)ccc4C)C3)n2)cc(OC)c1OC (configuration not stated),0
9,Nc1n[nH]c2ncc(-c3ccccc3)cc12,0
10,O=C(Nc1[nH]nc2cc(-c3cccc(F)c3F)ccc12)C1CC1,0
11,O=c1[nH]cc(-c2ccc(N3CCOCC3)cc2)c2sc(-c3cn[nH]c3)cc12,0
12,COC(=O)Nc1nc2ccc(Oc3ccc(NC(=O)Nc4cccc(SC)c4)cc3)cc2[nH]1,20
13,COc1cccc(NC(=O)NC2CCN(c3ccnc(Nc4cc(OC)c(OC)c(OC)c4)n3)C2)c1 (configuration not stated),86.7
14,Fc1cc(Cl)ccc1Nc1ccnc2cc(I)ccc12,33.4
15,N#CCc1ccc(Nc2nccc(Nc3ccc(Oc4ccccc4)cc3)n2)cc1,20
16,CC(C)(C)OC(=O)NC1CCCN(c2cc(-c3ccc4c(N)n[nH]c4c3)nc(N)n2)C1 (configuration not stated),0
17,Cc1ccc(-c2cc(-c3c[nH]nc3-c3ccccn3)ccn2)cc1,0
18,COc1cccc(C2=C(N(C)c3ccccc3)C(=O)NC2=O)c1,0
19,O=C(Nc1n[nH]c2cc(-c3cccs3)ccc12)C1CC1,0
20,C[C@@H](Oc1cc(-n2cnc3ccc(-c4ccncc4)cc32)sc1C(N)=O)c1ccccc1Cl,0
21,CCc1nc(-c2cccc(N(C)S(=O)(=O)c3ccccc3)c2)c(-c2ccnc(Nc3ccc(N4CCN(C(C)=O)CC4)nc3)n2)s1,0
22,CN1C(=O)C(Nc2ccccc2)=C(c2ccccc2)C1=O,13.4
23,N#Cc1ccc(-c2cc(-c3c[nH]nc3-c3ccccn3)ccn2)cc1,0

row,SMILES,MOTILITY REDUCTION/CYTOTOXICITY [%]
1,Cc1ccc(NC(=O)c2ccnc(N3CCN(C)CC3)c2)cc1-c1ccc(C(=O)NCC2CC2)cc1,0
2,Cc1c(O)cccc1Nc1ccnc2ccc(C(F)(F)F)cc12,40
3,NCC(NCc1ccc(-c2ccnc3[nH]ccc23)s1)c1ccccc1 (configuration not stated),0
4,Cc1cc(C)cc(Oc2nccc(-c3c(-c4ccc(F)cc4)ncn3C3CCNCC3)n2)c1,20
5,O=S(=O)(c1cccc(F)c1)c1ccc(Nc2ncnc3cc(Br)sc23)cc1Cl,73.4
6,O=C1NC(=O)C(c2ccccc2)=C1Nc1cccc(O)c1,0
7,Nc1nccc(-c2c(-c3ccc(F)cc3)ncn2C2CCN(Cc3ccccc3)CC2)n1,0
8,Cc1cccc(-c2nc(C)cc(Nc3ccncc3)n2)n1,0
9,Nc1n[nH]c2nnc(-c3ccccc3)c(-c3ccccc3)c12,0
10,CSc1ccc(NC2=C(c3cccc(Cl)c3)C(=O)NC2=O)cc1,0
11,COc1ccccc1-c1ccc2c(NC(=O)C3CC3)n[nH]c2n1,0
12,O=C(Nc1cccc(-c2nn3ccccc3c2-c2ccnc(Nc3cccc(F)c3)n2)c1)c1c(F)ccc(F)c1Cl,0
13,Cc1ccc(C(=O)Nc2ccc(Nc3ccnc4cc(-c5ccccn5)ccc34)cc2O)cc1,0
14,CC(C)c1nc(-c2cccc(NS(=O)(=O)c3ccccc3)c2)c(-c2ccnc(Nc3ccc4c(c3)CN(C)CC4)n2)s1,86.7
15,CC(C)(C)c1ccc2nccc(Nc3cccc(O)c3)c2c1,100
16,Cc1ccc(NC(=O)c2ccc(Cl)cc2)cc1-c1ccc(C(=O)Nc2ccncc2)cc1,66.7
17,Oc1cccc(Nc2ccnc3cc(-c4ccncc4)ccc23)c1,0
18,COc1ccc(C2=C(Nc3cccc(O)c3)C(=O)NC2=O)cc1,13.4
19,O=c1cc(N2CCOCC2)nc2n(Cc3cccc(F)c3)ccn12,0
20,COc1ccc(Nc2nccc(N3CCC(NC(=O)Nc4cccc(C(C)=O)c4)C3)n2)cc1 (configuration not stated),0
21,Cc1cn2c(=O)cc(N3CCOCC3)nc2n1Cc1cccc(Cl)c1Cl,0
22,Cc1cc(NCC(c2ccccc2)c2ccccc2)nc(NCc2ccc(C(F)(F)F)cc2)n1,53.4
23,C[C@@H](Oc1cc(-n2cnc3cc(-c4cnn(C)c4)ccc32)sc1C(N)=O)c1ccccc1Cl,46.7

row,SMILES,MOTILITY REDUCTION/CYTOTOXICITY [%]
1,COc1cc(Nc2nccc(N3CCC(NC(=O)c4cccc(C#N)c4)C3)n2)cc(OC)c1OC (configuration not stated),0
2,CN(c1ccc(NC(=O)Nc2cc(C(F)(F)F)ccc2F)cc1)c1ccnc(Nc2ccc(S(N)(=O)=O)cc2)n1,100
3,CCn1c(-c2cccnc2O)nc2cnccc21,13.4
4,CC(C)c1nc(-c2ccc(F)c(NS(=O)(=O)c3c(F)cccc3F)c2)c(-c2ccnc(Nc3ccc(N4CCOCC4)nc3)n2)s1,0
5,O=C(NCCNc1ccnc(Nc2ccc(F)cc2)n1)c1cc2ccccc2s1,66.7
6,O=C(NCCCN1CCOCC1)c1cccc(Nc2nccc(Nc3ccc(Oc4ccccc4)cc3)n2)c1,13.4
7,COc1ccc(C2=C(Nc3cccc(C(=O)O)c3)C(=O)NC2=O)cc1,20
8,COc1cccc(NC(=O)Nc2ccc(C)c(-c3ccc(C(=O)Nc4ccncc4)cc3)c2)c1,100
9,O=c1[nH]cc(-c2ccc(O)cc2)c2sc(-c3ccncc3)cc12,0
10,COc1ccc(Nc2nccc(NCCNC(=O)Nc3cc(C)ccc3C)n2)cc1,33.4
11,Fc1ccc(-c2nc[nH]c2-c2ccncc2)cc1,0
12,Oc1cc(Nc2ccnc3cc(I)ccc23)ccc1F,33.4
13,O=C(Nc1n[nH]c2cc(-c3cccc(F)c3)ccc12)C1CC1,0
14,NCC(NC(=O)c1cc(-c2cccnc2)c(-c2ccnc3[nH]ccc23)s1)c1ccccc1 (configuration not stated),0
15,O=C(Nc1[nH]nc2cc(-c3ccccc3F)ccc12)C1CC1,0
16,Nc1nc(-c2ccc3c(N)n[nH]c3c2)cc(N2CCCCC2)n1,0
17,O=C(c1ccc(-c2cc(-c3c[nH]nc3-c3ccccn3)ccn2)cc1)N1CCOCC1,0
18,COc1ccc(NC(=O)c2ccoc2)cc1-c1ccc(C(=O)NCC2CC2)cc1,13.4
19,O=C(Nc1n[nH]c2nc(-c3ccccc3)c(Br)cc12)C1CC1,20
20,O=c1cc(N2CCOCC2)nc2n(Cc3ccccc3F)ccn12,0
21,Fc1ccc(Nc2nccc(-c3c(-c4ccc(Cl)cc4)nn4ncccc34)n2)cc1F,0
22,COc1ccc(CNC(=O)NC2CCN(c3ccnc(Nc4ccc(OC)cc4)n3)C2)cc1 (configuration not stated),0
23,Nc1ncnc2[nH]c(-c3ccccc3)nc12,0
